In patent US10358446B2, “Bruton's tyrosine kinase inhibitors” (Zibo Biopolar Changsheng Pharmaceutical Co. Ltd., priority 2015, dated 2019):

These molecules were tested against BTK (Homo sapiens (Human), UniProt Q06187) (assay: Btk kinase assay (HTRF)). Conditions: [ATP]=80 μM, BTK=3.4 nM; read-out: BTK Inhibition.
Type: biochemical
Summary of the method: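 HTRF kinase read-out (665/615 nm ratio, excitation 330 nm) after EDTA quench and 1 h detection incubation. Reaction: 3.4 nM BTK, ATP 80 μM, peptide substrate 1 μM, compound, HEPES pH 7.0 buffer, 1 h; IC50 derived using uninhibited and enzyme-free controls.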

Sequence of BTK (Q06187 whole entry, species assumed): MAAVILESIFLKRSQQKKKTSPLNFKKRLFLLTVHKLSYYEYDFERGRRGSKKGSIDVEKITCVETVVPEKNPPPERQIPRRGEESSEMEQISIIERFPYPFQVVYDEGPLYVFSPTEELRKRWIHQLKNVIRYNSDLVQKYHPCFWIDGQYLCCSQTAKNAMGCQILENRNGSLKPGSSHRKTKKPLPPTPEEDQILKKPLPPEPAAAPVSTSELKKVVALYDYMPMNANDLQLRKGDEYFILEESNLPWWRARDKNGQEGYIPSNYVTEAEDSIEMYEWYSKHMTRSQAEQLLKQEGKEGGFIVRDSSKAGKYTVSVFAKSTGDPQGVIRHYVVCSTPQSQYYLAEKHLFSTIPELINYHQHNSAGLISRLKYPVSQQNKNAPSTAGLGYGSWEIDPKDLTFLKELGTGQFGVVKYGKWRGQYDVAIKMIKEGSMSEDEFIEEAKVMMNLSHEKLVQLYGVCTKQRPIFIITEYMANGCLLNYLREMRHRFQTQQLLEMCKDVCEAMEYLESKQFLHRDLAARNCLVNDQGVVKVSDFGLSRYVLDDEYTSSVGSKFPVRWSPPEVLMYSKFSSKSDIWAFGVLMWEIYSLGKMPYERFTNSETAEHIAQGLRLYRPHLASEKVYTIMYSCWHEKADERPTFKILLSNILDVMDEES

| Structure (SMILES) | IC50 [nM] |
| --- | --- |
| C=CC(=O)N1CC[C@@H](n2c(=O)n(-c3ccc(Oc4cccc(Cl)c4F)c(F)c3)c3cnccc32)C1 [Example 101, (R)-1-(1-acryloylpyrrolidin-3-yl)-3-(4-(3-chloro-2-fluorophenoxy)-3-fluorophenyl)-1,3-dihydro-2H-imidazo[4,5-c]pyridin-2-one] | 10 to 100 |
| C=CC(=O)N1CCC(n2c(=O)n(-c3ccc(Oc4ccncc4)cc3)c3cnccc32)C1 (stereo not drawn) [Example 164, 1-(1-acryloylpyrrolidin-3-yl)-3-(4-(pyridin-4-yloxy)phenyl)-1H-imidazo[4,5-c]pyridin-2(3H)-one] | 1000 to 10000 |
| C=CC(=O)N1CC[C@@H](n2c(=O)n(-c3ccc(OCc4cc(F)ccc4F)c(Cl)c3)c3cnccc32)C1 [Example 206, (R)-1-(1-acryloylpyrrolidin-3-yl)-3-(3-chloro-4-((2,5-difluorobenzyl)oxy)phenyl)-1H-imidazo[4,5-c]pyridin-2(3H)-one] | 100 to 1000 |
| C=CC(=O)N1CC[C@@H](n2c(=O)n(-c3ccc(Oc4ccccc4)cc3)c3cnccc32)C1 [Example 33, (R)-1-(1-acryloylpyrrolidin-3-yl)-3-(4-phenoxyphenyl)-1H-imidazo[4,5-c]pyridin-2(3H)-one] | 10 to 100 |
| C=CC(=O)Nc1cccc(-n2c(=O)n(-c3ccc(Oc4cccc(OC(C)C)c4)cc3)c3cnccc32)c1 [Example 85, N-(3-(3-(4-(3-isopropoxyphenoxy)phenyl)-2-oxo-2,3-dihydro-1H-imidazo[4,5-c]pyridin-1-yl)phenyl)acrylamide] | 10 to 100 |
| C=CC(=O)N1CC[C@@H](n2c(=O)n(-c3ccc(Oc4ccccc4)c(F)c3)c3cnccc32)C1 [Example 95, (R)-1-(1-acryloylpyrrolidin-3-yl)-3-(3-fluoro-4-phenoxyphenyl)-1,3-dihydro-2H-imidazo[4,5-c]pyridin-2-one] | 10 to 100 |
| C=CC(=O)N1CC[C@@H](n2c(=O)n(-c3ccc(OCc4ccccc4F)c(Cl)c3)c3cnccc32)C1 [Example 236, (R)-1-(1-acryloylpyrrolidin-3-yl)-3-(3-chloro-4-((2-fluorobenzyl)oxy)phenyl)-1,3-dihydro-2H-imidazo[4,5-c]pyridin-2-one] | 100 to 1000 |
| C=CC(=O)N1CC[C@@H](n2c(=O)n(-c3ccc(OCc4ccccc4)c(Cl)c3)c3cnccc32)C1 [Example 197, (R)-1-(1-acryloylpyrrolidin-3-yl)-3-(4-(benzyloxy)-3-chlorophenyl)-1H-imidazo[4,5-c]pyridin-2(3H)-one] | 100 to 1000 |
| C=CC(=O)Nc1cccc(-n2c(=O)n(-c3ccc(Oc4cccc(Cl)c4)c(F)c3)c3cnccc32)c1 [Example 50] | 100 to 1000 |
| C=CC(=O)N1CC[C@@H](n2c(=O)n(-c3ccc(Oc4ccc(OC)cc4)cc3)c3cnccc32)C1 [Example 35, (R)-1-(1-acryloylpyrrolidin-3-yl)-3-(4-(4-methoxyphenoxy)phenyl)-1H-imidazo[4,5-c]pyridin-2(3H)-one] | 10 to 100 |
| C=CC(=O)Nc1cccc(-n2c(=O)n(-c3cccc(Oc4ccccc4OC)c3)c3cnccc32)c1 [Example 89, N-(3-(3-(3-(2-methoxyphenoxy)phenyl)-2-oxo-2,3-dihydro-1H-imidazo[4,5-c]pyridin-1-yl)phenyl)acrylamide] | 10 to 100 |
| C=CC(=O)N1CCC(n2c(=O)n(-c3ccc(Oc4cccc(C(F)(F)F)c4)c(Cl)c3)c3cnccc32)C1 (stereo not drawn) [Example 6, 1-(1-acryloylpyrrolidin-3-yl)-3-(3-chloro-4-(3-(trifluoromethyl)phenoxy)phenyl)-1H-imidazo[4,5-c]pyridin-2(3H)-one] | 10 to 100 |
| C=CC(=O)Nc1cccc(-n2c(=O)n(-c3ccc(Oc4cccc(Cl)c4C)cc3)c3cnccc32)c1 [Example 150, N-(3-(3-(4-(3-chloro-2-methylphenoxy)phenyl)-2-oxo-2,3-dihydro-1H-imidazo[4,5-c]pyridin-1-yl)phenyl)acrylamide] | 10 to 100 |
| C=CC(=O)N1CC[C@@H](n2c(=O)n(-c3ccc(Oc4cccc(F)c4Cl)cc3)c3cnccc32)C1 [Example 102, (R)-1-(1-acryloylpyrrolidin-3-yl)-3-(4-(2-chloro-3-fluorophenoxy)phenyl)-1,3-dihydro-2H-imidazo[4,5-c]pyridin-2-one] | 10 to 100 |
| C=CC(=O)N1CC[C@@H](n2c(=O)n(-c3ccc(OCc4ccc(F)c(F)c4)c(Cl)c3)c3cnccc32)C1 [Example 201, (R)-1-(1-acryloylpyrrolidin-3-yl)-3-(3-chloro-4-((3,4-difluorobenzyl)oxy)phenyl)-1H-imidazo[4,5-c]pyridine-2(3H)-one] | 10 to 100 |
| C=CC(=O)Nc1cccc(-n2c(=O)n(-c3ccc(C4CC4)cc3)c3cnccc32)c1 [Example 278, N-(3-(3-(4-cyclopropylphenyl)-2-oxo-2,3-dihydro-1H-imidazo[4,5-c]pyridin-1-yl)phenyl)acrylamide] | 10 to 100 |
| C=CC(=O)N1CCC[C@@H](n2c(=O)n(-c3ccc(Oc4cccc(OC)c4F)cc3)c3cnccc32)C1 [Example 186, (R)-1-(1-acryloylpiperidin-3-yl)-3-(4-(2-fluoro-3-methoxyphenoxy)phenyl)-1H-imidazo[4,5-c]pyridin-2(3H)-one] | ≤ 10 |

| Structure (SMILES) | IC50 [nM] |
| --- | --- |
| C=CC(=O)Nc1cccc(-n2c(=O)n(-c3ccc(Oc4cccc(F)c4C)cc3)c3cnccc32)c1 [Example 79, N-(3-(3-(4-(3-fluoro-2-methylphenoxy)phenyl)-2-oxo-2,3-dihydro-1H-imidazo[4,5-c]pyridin-1-yl)phenyl)acrylamide] | 10 to 100 |
| C=CC(=O)Nc1cccc(-n2c(=O)n(-c3ccc(OCc4ccc(C(F)(F)F)cc4)c(Cl)c3)c3cnccc32)c1 [Example 223, N-(3-(3-(3-chloro-4-((4-(trifluoromethyl)benzyl)oxy)phenyl)-2-oxo-2,3-dihydro-1H-imidazo[4,5-c]pyridin-1-yl)phenyl)acrylamide] | 100 to 1000 |
| C=CC(=O)N1CC[C@@H](n2c(=O)n(-c3ccc(Oc4ccccc4)cc3)c3cncc(Cl)c32)C1 [Example 151, (R)-1-(1-acryloylpyrrolidin-3-yl)-7-chloro-3-(4-phenoxyphenyl)-1H-imidazo[4,5-c]pyridin-2(3H)-one] | ≤ 10 |
| C=CC(=O)Nc1cccc(-n2c(=O)n(-c3ccc(OCc4ccc(Cl)c(Cl)c4)cc3)c3cnccc32)c1 [Example 218, N-(3-(3-(4-((3,4-dichlorobenzyl)oxy)phenyl)-2-oxo-2,3-dihydro-1H-imidazo[4,5-c]pyridin-1-yl)phenyl)acrylamide] | 100 to 1000 |
| C=CC(=O)N1CC[C@@H](n2c(=O)n(-c3ccc(Oc4ccccc4)cc3)c3c(C#N)nccc32)C1 [Example 65] | 1000 to 10000 |
| C=CC(=O)Nc1cccc(-n2c(=O)n(-c3cccc(Oc4cccc(OC)c4)c3)c3cnccc32)c1 [Example 87, N-(3-(3-(3-(3-methoxyphenoxy)phenyl)-2-oxo-2,3-dihydro-1H-imidazo[4,5-c]pyridin-1-yl)phenyl)acrylamide] | 10 to 100 |
| C=CC(=O)N1CCC[C@@H](n2c(=O)n(-c3ccc(Oc4cccc(Cl)c4C)cc3)c3cnccc32)C1 [Example 134, (R)-1-(1-acryloylpiperidin-3-yl)-3-(4-(3-chloro-2-methylphenoxy)phenyl)-1H-imidazo[4,5-c]pyridin-2(3H)-one] | 10 to 100 |
| C=CC(=O)N1CC[C@@H](n2c(=O)n(-c3ccc(Oc4cc(Cl)cc(OC)c4)cc3)c3cnccc32)C1 [Example 9, (R)-1-(1-acryloylpyrrolidin-3-yl)-3-(4-(3-chloro-5-methoxyphenoxy)phenyl)-1H-imidazo[4,5-c]pyridin-2(3H)-one] | 10 to 100 |
| C=CC(=O)Nc1cccc(-n2c(=O)n(-c3ccc(OCc4c(F)cccc4F)c(F)c3)c3cnccc32)c1 [Example 227, N-(3-(3-(4-((2,6-difluorobenzyl)oxy)-3-fluorophenyl)-2-oxo-2,3-dihydro-1H-imidazo[4,5-c]pyridin-1-yl)phenyl)acrylamide] | 100 to 1000 |
| C=CC(=O)N1CC[C@@H](n2c(=O)n(-c3ccc(OCc4ccccn4)cc3)c3cnccc32)C1 [Example 213, (R)-1-(1-acryloylpyrrolidin-3-yl)-3-(4-(pyridin-2-ylmethoxy)phenyl)-1H-imidazo[4,5-c]pyridin-2(3H)-one] | 1000 to 10000 |
| C=CC(=O)N1CCC[C@@H](n2c(=O)n(-c3ccc(Oc4cccc(OC)c4F)cc3)c3cncc(OCC)c32)C1 [Example 167, (R)-1-(1-acryloylpiperidin-3-yl)-7-ethoxy-3-(4-(2-fluoro-3-methoxyphenoxy)phenyl)-1H-imidazo [4,5-c]pyridin-2(3H)-one] | ≤ 10 |
| C=CC(=O)Nc1cccc(-n2c(=O)n(-c3ccc(Oc4cccc(OC(C)C)c4)c(Cl)c3)c3cnccc32)c1 [Example 145, N-(3-(3-(3-chloro-4-(3-isopropoxyphenoxy)phenyl)-2-oxo-2,3-dihydro-1H-imidazo[4,5-c]pyridin-1-yl)phenyl)acrylamide] | 100 to 1000 |
| C=CC(=O)Nc1cccc(-n2c(=O)n(-c3ccc(Oc4ccccc4)cc3)c3ncccc32)c1 [Example 119, N-(3-(2-oxo-3-(4-phenoxyphenyl)-2,3-dihydro-1H-imidazo[4,5-b]pyridin-1-yl)phenyl)acrylamide] | 1000 to 10000 |
| C=CC(=O)Nc1cccc(-n2c(=O)n(-c3ccc(C(=O)Nc4cccc(C(F)(F)F)c4)cc3)c3cnccc32)c1 [Example 251, 4-(1-(3-acrylamidophenyl)-2-oxo-1H-imidazo[4,5-c]pyridin-3(2H)-yl)-N-(3-(trifluoromethyl)phenyl)benzamide] | 1000 to 10000 |
| C=CC(=O)Nc1cccc(-n2c(=O)n(-c3ccc(Oc4ccc(Cl)c(Cl)c4)cc3)c3cnccc32)c1 [Example 159, N-(3-(3-(4-(3,4-dichlorophenoxy)phenyl)-2-oxo-2,3-dihydro-1H-imidazo[4,5-c]pyridin-1-yl)phenyl)acrylamide] | 10 to 100 |
| C=CC(=O)Nc1cccc(-n2c(=O)n(-c3ccc(C(=O)Nc4cccc(C)c4)cc3)c3cnccc32)c1 [Example 255, 4-(1-(3-acrylamidophenyl)-2-oxo-1H-imidazo[4,5-c]pyridin-3(2H)-yl)-N-(m-tolyl)benzamide] | 1000 to 10000 |
